“Also recorded” adds a separate entry of the source.
Biological target: FKBP12 (Homo sapiens, UniProt P62942)
Assay: Ki test procedure: inhibition of peptidyl-prolyl isomerase (rotamase) activity, chymotrypsin-coupled assay
Type: biochemical
Details: apparent Ki, FKBP rotamase inhibition
Excerpt: The inhibition of the prolyl peptidyl cis-trans isomerase activity of FKBP may be measured as an indicator of this affinity.
Inhibition of the peptidyl-prolyl isomerase (rotamase) activity of the compounds used in the inventive methods and pharmaceutical compositions can be evaluated by known methods described in the literature (Harding et al., Nature, 1989, 341:758-760; Holt et al. J. Am. Chem. Soc., 115:9923-9938). These values are obtained as apparent Ki's and are presented for representative compounds in TABLE I.
The cis-trans isomerization of an alanine-proline bond in a model substrate, N-succinyl-Ala-Ala-Pro-Phe-p-nitroanilide, is monitored spectrophotometrically in a chymotrypsin-coupled assay, which releases para-nitroanilide from the trans form of the substrate. The inhibition of this reaction caused by the addition of different concentrations of inhibitor is determined, and the data is analyzed as a change in first-order rate constant as a function of inhibitor concentration to yield the apparent Ki values.
In a plastic cuvette are added 950 Ml of ice cold assay buffer (25 mM HEPES, pH 7.8, 100 mM NaCl), […] of FKBP (2.5 mM in 10 mM Tris-Cl pH 7.5, 100 mM NaCl, 1 mM dithiothreitol), […] of chymotrypsin (50 mg/ml in 1 mM HCl) and […] of test compound at various concentrations in dimethyl sulfoxide. The reaction is initiated by the addition of 5 mL of substrate (succinyl-Ala-Phe-Pro-Phe-para-nitroanilide, 5 mg/mL in 2.35 mM LiCl in trifluoroethanol).
The absorbance at 390 nm versus time is monitored for 90 seconds using a spectrophotometer and the rate constants are determined from the absorbance versus time data files.

FKBP12, sequence (P62942 whole entry, species assumed): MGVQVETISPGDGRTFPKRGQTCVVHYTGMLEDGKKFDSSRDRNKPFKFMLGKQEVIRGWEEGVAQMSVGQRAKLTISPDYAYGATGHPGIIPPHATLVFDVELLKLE

Ki [nM]	Compound
51 to 200	Cc1ccc(S(=O)(=O)N2CCCC2C(=O)SCCc2ccccc2)cc1 (stereo not shown) [Compound 3]
51 to 200	COc1ccc(CCCSC(=O)C2CCCN2S(=O)(=O)c2ccccc2)cc1 [Compound 4, 3-(para-Methoxyphenyl)-1-propylmercaptyl(2S)-N-(benzenesulfonyl)pyrrolidine-2-carboxylate]
51 to 200	COc1ccc(CCCSC(=O)C2CCCN2S(=O)(=O)Cc2ccccc2)cc1 [Compound 5, 3-(para-Methoxyphenyl)-1-propylmercaptyl (2S)-N-(α-toluenesulfonyl)pyrrolidine-2-carboxylate]
51 to 200	O=C(SCCC(c1ccccc1)c1ccccc1)C1CCCN1S(=O)(=O)c1ccccc1 (stereo not shown) [Compound 7]
1 to 50	Cc1ccc(S(=O)(=O)N2CCCC2C(=O)SCCC(c2ccccc2)c2ccccc2)cc1 (stereo not shown) [Compound 9]
1 to 50	O=C(SCCCCc1ccccc1)C1CCCCN1S(=O)(=O)c1ccccc1 (stereo not shown) [Compound 10]
51 to 200	O=C(SCCCCc1ccccc1)C1CCCCN1S(=O)(=O)Cc1ccccc1 (stereo not shown) [Compound 11]
1 to 50	COc1cc(S(=O)(=O)N2CCCCC2C(=O)SCCCCc2ccccc2)cc(OC)c1OC (stereo not shown) [Compound 13]
1 to 50	O=C(SCCCCc1ccccc1)C1CCCCN1S(=O)(=O)C1CCCCC1 (stereo not shown) [Compound 14]
1 to 50	O=C(SC(CCCc1ccccc1)CCCc1ccccc1)C1CCCCN1S(=O)(=O)c1ccccc1 (stereo not shown) [Compound 15]
51 to 200	O=C(SC(CCCc1ccccc1)CCCc1ccccc1)C1CCCCN1S(=O)(=O)Cc1ccccc1 (stereo not shown) [Compound 16]

Second part, the molecule before the results:

Compound	Ki [nM]
O=C(SCCc1ccccc1)C1CCCN1S(=O)(=O)c1ccccc1 (stereo not shown) [Compound 1]	1 to 50
O=C(SCCc1ccccc1)C1CCCN1S(=O)(=O)Cc1ccccc1 (stereo not shown) [Compound 2]	51 to 200
COc1ccc(CCCSC(=O)C2CCCN2S(=O)(=O)c2ccc(C)cc2)cc1 (stereo not shown) [Compound 6]	201 to 500
O=C(SCCC(c1ccccc1)c1ccccc1)C1CCCN1S(=O)(=O)Cc1ccccc1 (stereo not shown) [Compound 8]	1 to 50
Cc1ccc(S(=O)(=O)N2CCCCC2C(=O)SCCCCc2ccccc2)cc1 (stereo not shown) [Compound 12]	1 to 50

System: C57 black 6 mice
Assay: In vivo hair generation test, Experiment A (shaved C57 black 6 mice, topical)
Details: 30 μM topical in 20% propylene glycol, 3 applications over 5 days, after six weeks
Excerpt: Care was taken not to nick or cause abrasion to the underlaying dermal layers. The animals were in anagen growth phase, as indicated by the pinkish color of the skin. […] Hair growth was quantitated by the percent of shaved area covered by new hair growth during this time period.

Compound	hair regrowth in shaved area
CCC(C)(C)C(=O)C(=O)N1CCC[C@H]1C(=O)OCCCc1cccnc1 [GPI 1046, 3-(3-pyridyl)-1-propyl (2s)-1-(3,3-dimethyl-1,2-dioxopentyl)-2-pyrrolidinecarboxylate]	essentially complete hair regrowth; also recorded: essentially, complete hair regrowth

System: C57 black 6 mice
Assay: In vivo hair generation test, Experiment B (shaved C57 Black 6 mice, topical, relative hair growth index)
Details: one micromole per milliliter topical, three times per week, 14 days after initiation of treatment
Description: Care was taken not to nick or cause abrasion to the underlying dermal layers. The animals were in anagen growth phase when shaved. […] The animals were treated three times per week, and hair growth was evaluated 14 days after initiation of treatment.

Compound	hair growth (relative hair growth index, FIG. 5)
O=C(SCCCc1ccccc1)[C@@H]1CCCN1S(=O)(=O)Cc1ccccc1 [GPI 1312]	dramatic hair growth

System: not given
Assay: not given
Details: topical, but not oral, application; cited from earlier work

Compound	stimulation of hair growth
C=CC[C@@H]1/C=C(\C)C[C@H](C)C[C@H](OC)[C@H]2O[C@@](O)(C(=O)C(=O)N3CCCC[C@H]3C(=O)O[C@H](/C(C)=C/[C@@H]3CC[C@@H](O)[C@H](OC)C3)[C@H](C)[C@@H](O)CC1=O)[C@H](C)C[C@@H]2OC [FK506]	stimulates hair growth in a dose-dependent manner

Reference: patent US20020010205A1, “N-linked sulfone of heterocyclic thioester hair growth compositions and uses” (GPI NIL HOLDINGS, INC., priority 1998, published 2002)
